Laboratory results: ChEMBL document CHEMBL1201862, “PubChem BioAssay data set” (2004)
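Five concentrations, 48 hours, 96-well plates. Here, GI50 denotes the concentration required for 50% inhibition of growth.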 Active and inactive are the calls of the source. Rule as the data show it: active = GI50 up to about 1.1 µM and inactive = higher. Where a SMILES comes first, the peptide text is derived from it. [ ]: non-standard residue; d: D form. Phe(4-NO2) = N[CH](Cc1ccc([N+](=O)[O-])cc1)C(=O)O

How the values were obtained:
Test in all cases: NCI-60 cell line screen, 48 h
[1] = system: A549
[2] = system: DU-145
[3] = system: EKVX
[4] = system: HCT-116
[5] = system: HOP-92
[6] = system: HT-29
[7] = system: LOX IMVI
[8] = system: MCF7
[9] = system: NCI-H226
[10] = system: NCI-H460
[11] = system: NCI-H522
[12] = system: OVCAR-4
[13] = system: RPMI-8226
[14] = system: SF-539
[15] = system: SN12C
[16] = system: SW-620
[17] = system: HL-60
[18] = system: K562
[19] = system: RXF 393
[20] = system: SNB-75

Measured: GI50

CN(C)CCn1c2c(c3ccccc31)CCc1ccccc1-2
inactive: [1] 15 µM | [2] 16.1 µM | [3] 17.4 µM | [4] 12 µM | [5] 14 µM | [6] 8.99 µM | [7] 17 µM | [8] 16.8 µM | [9] 12.8 µM | [10] 14.4 µM | [11] 15.9 µM | [12] 14.3 µM | [13] 6.49 µM | [14] 13.4 µM | [15] 13.8 µM | [16] 18.8 µM

O=C1CCC2CCC1C2 (configuration not stated)
inactive: [1] > 100 µM | [2] > 100 µM | [4] > 100 µM | [17] > 100 µM | [6] > 100 µM | [18] > 100 µM | [7] > 100 µM | [8] > 100 µM | [9] > 100 µM | [10] > 100 µM | [12] > 100 µM | [13] > 100 µM | [19] 96.4 µM | [14] > 100 µM | [15] > 100 µM | [20] > 100 µM

CC(=O)OCc1cc(OC(C)=O)c2cc3c(OC(C)=O)cccc3c(OC(C)=O)c2c1
inactive: [1] 12.5 µM | [2] 16.7 µM | [3] 6.7 µM | [4] 19.7 µM | [17] 9.51 µM | [5] 20.4 µM | [6] 14.8 µM | [18] 19.2 µM | [8] 12.8 µM | [9] 23.1 µM | [10] 5.65 µM | [12] 17.8 µM | [13] 11.2 µM | [15] 12.2 µM | [20] 22.3 µM | [16] 12.2 µM

COC(=O)CCC(NC(=O)C(CCC(=O)OC)NC(=O)C(CCC(=O)OC)NC(=O)C(CCC(=O)OC)NC(=O)C(CCC(=O)OC)NC(=O)C(Cc1ccc([N+](=O)[O-])cc1)NC(=O)C(CCC(=O)OC)NC(=O)C(CCC(=O)OC)NC(=O)C(CCC(=O)OC)NC(=O)C(CCC(=O)OC)NC(=O)C(CCC(=O)OC)NC(C)=O)C(N)=O (configuration not stated) (Ac-E(OMe)E(OMe)E(OMe)E(OMe)E(OMe)[Phe(4-NO2)]E(OMe)E(OMe)E(OMe)E(OMe)E(OMe)-NH2; configuration not given here)
inactive: [1] > 100 µM | [2] > 100 µM | [3] > 100 µM | [4] > 100 µM | [6] > 100 µM | [7] > 100 µM | [8] > 100 µM | [10] > 100 µM | [11] > 100 µM | [12] > 100 µM | [13] > 100 µM | [19] > 100 µM | [15] > 100 µM | [20] > 100 µM | [16] > 100 µM

COc1ccccc1C1SCC(=O)N1c1ccc(-n2c(-c3ccccc3)nc3ccccc3c2=O)cc1 (configuration not stated)
inactive: [1] 62.7 µM | [2] 52.5 µM | [3] > 100 µM | [4] 57.1 µM | [17] > 10 µM | [5] 19.2 µM | [6] 64.1 µM | [18] 47.9 µM | [7] 77.8 µM | [8] 39.1 µM | [9] 74.1 µM | [10] 40.7 µM | [11] 40.3 µM | [12] 15.8 µM | [13] > 100 µM | [14] > 100 µM | [15] > 100 µM | [20] 3.51 µM | [16] 63.5 µM

CCCCCCCCCC/C=C/CC(=O)SCCNC(=O)CCNC(=O)[C@@H](O)C(C)(C)COP(=O)(O)OP(=O)(O)OCC1OC(n2cnc3c(N)ncnc32)C(O)C1OP(=O)(O)O (some centres not stated)
inactive: [1] > 10 µM | [2] > 10 µM | [3] > 10 µM | [4] > 10 µM | [17] > 10 µM | [5] > 10 µM | [6] > 10 µM | [18] > 10 µM | [7] > 10 µM | [8] > 10 µM | [9] > 10 µM | [10] > 10 µM | [12] > 10 µM | [13] > 10 µM | [19] > 10 µM | [14] > 10 µM | [15] > 10 µM | [20] > 10 µM | [16] > 10 µM

CC(C)(NC(=O)OCc1ccccc1)C(=O)OC(=O)C(C)(C)NC(=O)OCc1ccccc1
inactive: [1] > 100 µM | [2] > 10 µM | [3] > 100 µM | [4] > 100 µM | [5] > 100 µM | [6] > 100 µM | [18] > 100 µM | [7] > 100 µM | [8] > 100 µM | [9] > 100 µM | [10] > 100 µM | [11] > 100 µM | [12] > 100 µM | [13] > 100 µM | [14] > 100 µM | [15] > 100 µM | [20] > 100 µM | [16] > 100 µM

O=C(O)CNC(=O)c1c2ccccc2nc2ccccc12
inactive: [1] > 100 µM | [2] > 100 µM | [3] > 100 µM | [4] > 100 µM | [5] > 100 µM | [6] > 100 µM | [18] > 100 µM | [7] > 100 µM | [8] > 100 µM | [9] > 100 µM | [10] > 100 µM | [11] > 100 µM | [12] > 100 µM | [13] > 100 µM | [14] > 100 µM | [15] > 100 µM | [20] > 100 µM | [16] > 100 µM

CCCCOC(=O)NC(Nc1ccc(S(=O)(=O)Nc2ccc(OC)nn2)cc1)(C(F)(F)F)C(F)(F)F
inactive: [1] > 100 µM | [2] > 100 µM | [3] > 100 µM | [4] > 100 µM | [17] > 100 µM | [5] 78.2 µM | [6] > 100 µM | [18] > 100 µM | [7] > 100 µM | [8] > 100 µM | [9] > 100 µM | [10] > 100 µM | [12] > 100 µM | [13] > 100 µM | [19] > 100 µM | [14] > 100 µM | [15] > 100 µM | [16] > 100 µM

c1ccc2nn(C3CCCO3)nc2c1 (configuration not stated)
inactive: [1] > 100 µM | [2] > 100 µM | [3] > 100 µM | [4] > 100 µM | [17] > 100 µM | [6] > 100 µM | [18] > 100 µM | [8] > 100 µM | [9] > 100 µM | [10] > 100 µM | [11] > 100 µM | [12] > 100 µM | [19] > 100 µM | [14] > 100 µM | [15] > 100 µM | [20] > 100 µM

CN1c2ccccc2C(=O)NC12CCN(CC1COc3ccccc3O1)CC2 (configuration not stated)
inactive: [1] 50.6 µM | [2] 61 µM | [3] 51.6 µM | [4] 37.3 µM | [17] 25.4 µM | [5] 14 µM | [6] 31.9 µM | [18] 31.3 µM | [7] 45.1 µM | [8] 31.8 µM | [9] 19.2 µM | [10] 21.3 µM | [12] 29.9 µM | [13] 30.5 µM | [19] > 100 µM | [14] 36.4 µM | [20] > 100 µM | [16] 77.8 µM

CN(N=O)C(=O)Nc1c[nH]c(=O)[nH]c1=O
inactive: [1] > 100 µM | [2] > 100 µM | [3] > 100 µM | [4] > 100 µM | [17] > 100 µM | [5] > 100 µM | [6] > 100 µM | [18] > 100 µM | [7] > 100 µM | [8] > 100 µM | [9] > 100 µM | [11] > 100 µM | [12] > 100 µM | [14] > 100 µM | [15] > 100 µM | [20] > 100 µM | [16] > 100 µM

O=c1[nH]c(=O)n(C2CC(O)C(CO)O2)cc1/N=N/NCCCc1ccccc1 (configuration not stated)
inactive: [1] > 100 µM | [2] > 100 µM | [3] > 100 µM | [4] > 100 µM | [17] > 100 µM | [5] > 100 µM | [6] > 100 µM | [7] > 100 µM | [8] > 100 µM | [9] > 100 µM | [10] > 100 µM | [12] > 100 µM | [19] > 100 µM | [14] > 100 µM | [15] > 100 µM

C=CCN1CCC(c2cc(C(=O)OCC)[nH]c2-c2cc(C)no2)C1=O (configuration not stated)
inactive: [1] > 100 µM | [2] > 100 µM | [3] > 100 µM | [4] > 100 µM | [17] 76.2 µM | [5] > 100 µM | [6] > 100 µM | [18] > 100 µM | [7] > 100 µM | [8] > 100 µM | [9] > 100 µM | [10] > 100 µM | [12] > 100 µM | [13] > 100 µM | [19] > 100 µM | [14] > 100 µM | [15] > 100 µM | [20] 94.8 µM | [16] > 100 µM

CN1C(=O)C(CCO)(C(C)(C)C)c2ccccc21 (configuration not stated)
inactive: [1] > 100 µM | [2] > 100 µM | [3] > 100 µM | [4] > 100 µM | [17] > 100 µM | [5] > 100 µM | [18] > 100 µM | [7] > 100 µM | [8] > 100 µM | [9] 97.9 µM | [10] > 100 µM | [12] > 100 µM | [13] > 100 µM | [19] > 100 µM | [15] > 100 µM | [20] 68.1 µM | [16] > 100 µM
